The record followed here is ChEMBL document CHEMBL6087397, “H2S-releasing oridonin derivatives with improved antitumor activity by inhibiting the PI3K/AKT pathway” (Bioorg Med Chem, 2024).

What is called IC50 is the concentration needed to halve the response being measured.

Holding throughout (type): functional, cell-based
The test system of one test is MCF7. The test can be described thus: Antiproliferative activity against human MCF7 cells assessed as inhibition of cell proliferation incubated for 48 hrs by CCK-8 assay. The conditions noted are these: MCF7, 48 h.
Another test relates to A549. In words: Antiproliferative activity against human A549 cells assessed as inhibition of cell proliferation incubated for 48 hrs by CCK-8 assay. The conditions noted are these: A549, 48 h. (In general: Tetrazolium assays rely on reduction of a dye to a coloured formazan, in cell work by metabolically active cells.)
The subject of another test is HepG2. In words: Antiproliferative activity against human HepG2 cells assessed as inhibition of cell proliferation incubated for 48 hrs by CCK-8 assay. The conditions noted are these: HepG2, 48 h.
The next test relates to PANC-1. In words: Antiproliferative activity against human PANC-1 cells assessed as inhibition of cell proliferation incubated for 48 hrs by CCK-8 assay. The conditions noted are these: PANC-1, 48 h.
In another test the test system is MIA PaCa-2. In words: Antiproliferative activity against human MIA PaCa-2 cells assessed as inhibition of cell proliferation incubated for 48 hrs by CCK-8 assay. The conditions noted are these: MIA PaCa-2, 48 h.

Turning to `C=C1C(=O)[C@]23[C@H](O)[C@H]1CC[C@H]2[C@@]12CO[C@]3(O)[C@@H](O)[C@@H]1C(C)(C)CC[C@@H]2O` [ORIDONIN], the half-maximal inhibitory concentration (IC50) came to 16 µM in the test on MCF7; 14.9 µM in the test with A549; 28.1 µM with HepG2; 19.1 µM in the test on PANC-1; 5.97 µM with MIA PaCa-2.

In the case of `C=C1C(=O)[C@]23[C@H](OC(=O)CCCC(=O)OCCCCOC(=O)c4ccc(N=C=S)cc4)[C@H]1CC[C@H]2[C@@]12CO[C@]3(O)[C@@H](O)[C@@H]1C(C)(C)CCC2=O`, the concentration for half-maximal inhibition (IC50) with MCF7 was determined as 6.93 µM; in the test with A549, 24.4 µM; with HepG2 it was 8.69 µM; in the test with PANC-1, 18.8 µM; in the test with MIA PaCa-2 it was 11 µM.

For `C=C1C(=O)[C@]23[C@H](OC(=O)CCCC(=O)OCCCOC(=O)c4ccc(N=C=S)cc4)[C@H]1CC[C@H]2[C@@]12CO[C@]3(O)[C@@H](O)[C@@H]1C(C)(C)CC[C@@H]2OC(C)=O`, the IC50 in the test on MCF7 is 6.98 µM; in the test with A549, > 40 µM; with HepG2, > 40 µM; in the test on PANC-1 it was 24.8 µM; in the test on MIA PaCa-2, 14.9 µM.
